These results are taken from publication PMC6445162, “Effects of NS2B-NS3 protease and furin inhibition on West Nile and Dengue virus replication” (Journal of Enzyme Inhibition and Medicinal Chemistry, 2017).

Values joined by “and” are separate entries in the source; they are usually repeats but may differ in a detail not shown here. Equal values may be shown once. Read-outs that look alike come from different tables or passages of the source. Peptide text beside a SMILES is read from it.

Test [1] addresses DENV serotype 2 NS2B-NS3 protease construct (Dengue virus serotype 2). The test can be described thus: enzyme inhibition (percent inhibition of the cleavage of a fluorogenic substrate); DENV-2 NS2B-NS3pro ~39 nM in well; 100 µM inhibitor, 125 µM substrate Phac-Lys-Arg-Arg-AMC (KM = 60 µM); 100 mM Tris pH 8.5, 20% glycerol, 0.01% Triton X-100; room temperature.
Test [2] addresses T1, WNV NS2B-NS3 protease (West Nile virus, UniProt P06935).
T1 construct: WNV NS2B 40-amino acid cofactor together with the NS3 protease domain
Set-up: method as in PMID 23307694. As to conditions: reference compounds available from previous studies; cited from earlier work.

The target in test [3] is T1, WNV NS2B-NS3 protease. In words: Enzyme kinetic inhibition of WNV NS2B-NS3 protease construct (Dixon plot). In kind it is biochemical. As to conditions: for Ki: covalently linked WNV NS2B-NS3 construct, substrate Phac-Leu-Lys-Lys-Arg-AMC, Dixon plots, average of at least two measurements. The procedure: (§1) All measurements were performed at room temperature in black flat-bottom 96-well plates (Nunc, Langenselbold, Germany) using microplate readers (Tecan Safire^2, λex = 380 nm and λem = 460 nm, Tecan Group Ltd., Männedorf, Switzerland or Fluoroskan Ascent type 374, λex = 355 nm and λem = 460 nm; Thermo Fisher Scientific, Vantaa, Finland). The assays with the flavivirus protease constructs were performed with 125 μl buffer (100 mM Tris pH 8.5 containing 20% glycerol, 0.01% Triton X-100, and the inhibitor), 50 μl substrate solution, and were started by addition of 25 μl enzyme solution (total assay volume 200 μl).
For measurements with the covalently linked WNV NS2B-NS3 protease construct (∼4 nM in assay) the substrate Phac-Leu-Lys-Lys-Arg-AMC ×3 TFA (50 µM, 100 µM and 200 µM in assay, KM = 47.5 µM) was used, as described previously.
(§2) The DENV serotype 2 NS2B-NS3 protease construct was prepared from an identical clone as described by D’Arcy et al.[26] The purification of the protease was carried out in a buffer with high ion-strength and low pH value, in the absence of glycerol (20 mM Bis-Tris, 500 mM NaCl, pH 6.3), in order to prevent autolysis of the enzyme. Purification was performed by using a 5 ml HisTrapTM FF column (GE Healthcare) and subsequently, a HiLoad 16/60 SuperdexTM 75 column (GE Healthcare). The assays with the DENV-2 NS2B-NS3^pr° (∼39 nM in well) were performed with the substrate Phac-Lys-Arg-Arg-AMC ×3 TFA (125 µM, 62.5 µM and 31.25 µM in assay, KM = 60 µM). All Ki values were obtained from Dixon plots[27] and are the average of at least two measurements. Due to the weak potency of most compounds against the DENV-2 NS2B-NS3 protease construct, only the percentage of inhibition at a constant inhibitor concentration of 100 µM in the presence of 125 µM substrate was determined.

Test [4] addresses T2, DENV serotype 2 NS2B-NS3 protease (Dengue virus type 2, UniProt P14340).
T2 construct: The proteolytic activity of WNV and DENV is located in the N-terminal part of its NS3 protein; made in house
In words: Enzyme kinetic inhibition of DENV-2 NS2B-NS3 protease construct. In kind it is biochemical, Dengue virus serotype 2. As to conditions: 100 μM inhibitor in the presence of 125 μM substrate; read-out: % Inhib. (DENV). The procedure: as §1, §2

For orientation: % inhibition means the change of the read-out against control, counted positive when it falls. A higher % inhibition goes with strong suppression. As to “4-(guanidinomethyl)-phenylacetyl-Lys-Lys-Arg-NH2 (peptide)”, in test [1], the % inhibition at 100 μM inhibitor, 125 μM substrate came out at 65%.

For the compound `N=C(N)NCCCCNC(=O)C(CCCCN)NC(=O)C(CCCCN)NC(=O)Cc1ccc(Cl)c(Cl)c1` (stereo not drawn) [3,4-di-Cl-Phac-Lys-Lys-agmatine], at WNV NS2B-NS3 protease [2], the Ki was 400 nM.

`N=C(N)NC1CCC(CNC(=O)C(CCCCN)NC(=O)C(Cc2ccc(CN)cc2)NC(=O)Cc2ccccc2)CC1` (stereo not drawn) [inhibitor 3, Phac-Phe(4-AMe)-Lys-GCMA]: the “fold reduced potency against WNV protease” value on WNV NS2B-NS3 protease [3] (compared with reference inhibitor 2) is recorded as 4 fold. The Ki at WNV NS2B-NS3 protease [3] was 4.7 µM and 4.71 µM. In addition, in test [4], the inhibition at 100 µM came out at 12.4%.

In turn, `N=C(N)NCCC[C@H](NC(=O)[C@H](CCCCN)NC(=O)[C@H](CCCCN)NC(=O)Cc1ccccc1)C(=O)NCC(=O)NCC(N)=O` [inhibitor 17] (HELM PEPTIDE1{[O=C(Cc1ccccc1)[*:2]].K.K.R.G.G.[am]}$$$$V2.0) returned a Ki at WNV NS2B-NS3 protease [3] of 1.56 µM. Besides, in test [4], the inhibition at 100 µM came out at 35.1%.

`N=C(N)NCCC[C@H](NC(=O)[C@H](CCCCN)NC(=O)[C@H](CCCCN)NC(=O)Cc1ccccc1)C(=O)NCC(N)=O` [inhibitor 18] (HELM PEPTIDE1{[O=C(Cc1ccccc1)[*:2]].K.K.R.G.[am]}$$$$V2.0): the Ki on WNV NS2B-NS3 protease [3] was determined as 2.56 µM. In addition, the inhibition at 100 µM in test [4] worked out at 30.7%.

Regarding `C[C@H](NC(=O)[C@H](CCCNC(=N)N)NC(=O)[C@H](CCCCN)NC(=O)[C@H](CCCCN)NC(=O)Cc1ccccc1)C(N)=O` [inhibitor 19] (HELM PEPTIDE1{[O=C(Cc1ccccc1)[*:2]].K.K.R.A.[am]}$$$$V2.0), on WNV NS2B-NS3 protease [3], the Ki stood at 25 µM. Further, the inhibition at 100 µM in test [4] came out at 5.6%.

Regarding `C[C@@H](NC(=O)[C@H](CCCNC(=N)N)NC(=O)[C@H](CCCCN)NC(=O)[C@H](CCCCN)NC(=O)Cc1ccccc1)C(N)=O` [inhibitor 20] (HELM PEPTIDE1{[O=C(Cc1ccccc1)[*:2]].K.K.R.[dA].[am]}$$$$V2.0), at WNV NS2B-NS3 protease [3], the Ki came out at 75 µM. Besides, in test [4], the inhibition at 100 µM was determined as 12%.

Turning to `CC(C)[C@H](NC(=O)[C@H](CCCNC(=N)N)NC(=O)[C@H](CCCCN)NC(=O)[C@H](CCCCN)NC(=O)Cc1ccccc1)C(N)=O` [inhibitor 21] (HELM PEPTIDE1{[O=C(Cc1ccccc1)[*:2]].K.K.R.V.[am]}$$$$V2.0), at WNV NS2B-NS3 protease [3], the Ki is 105 µM. The inhibition at 100 µM in test [4] turned out to be 12%.

For `CC(C)(C)[C@H](NC(=O)[C@H](CCCNC(=N)N)NC(=O)[C@H](CCCCN)NC(=O)[C@H](CCCCN)NC(=O)Cc1ccccc1)C(N)=O` [inhibitor 22] (HELM PEPTIDE1{[O=C(Cc1ccccc1)[*:2]].K.K.R.[CC(C)(C)[C@H](N[*:1])C(=O)[*:2]].[am]}$$$$V2.0), the Ki at WNV NS2B-NS3 protease [3] turned out to be 140 µM. For the same compound, in test [4], the inhibition at 100 µM is 6.4%.

`N=C(N)NCCC[C@H](NC(=O)[C@H](CCCCN)NC(=O)[C@H](CCCCN)NC(=O)Cc1ccccc1)C(=O)N1CCC[C@H]1C(N)=O` [inhibitor 23] (HELM PEPTIDE1{[O=C(Cc1ccccc1)[*:2]].K.K.R.P.[am]}$$$$V2.0) returned a Ki at WNV NS2B-NS3 protease [3] of 200 µM. In addition, the inhibition at 100 µM in test [4] was determined as 5.2%.

On WNV NS2B-NS3 protease [3], `CN(CC(N)=O)C(=O)[C@H](CCCNC(=N)N)NC(=O)[C@H](CCCCN)NC(=O)[C@H](CCCCN)NC(=O)Cc1ccccc1` [inhibitor 24] (HELM PEPTIDE1{[O=C(Cc1ccccc1)[*:2]].K.K.R.[Sar].[am]}$$$$V2.0) yielded a Ki of 50 µM. The inhibition at 100 µM in test [4] amounted to 3.2%.

The compound `N=C(N)NCCC[C@H](NC(=O)[C@H](CCCCN)NC(=O)[C@H](CCCCN)NC(=O)Cc1ccccc1)C(=O)NCCCC(N)=O` [inhibitor 25] (HELM PEPTIDE1{[O=C(Cc1ccccc1)[*:2]].K.K.R.[O=C(CCCN[*:1])[*:2]].[am]}$$$$V2.0) displayed a Ki on WNV NS2B-NS3 protease [3] of 15 µM. In addition, the inhibition at 100 µM in test [4] came out at 26.3%.

For `N=C(N)NCCC[C@H](NC(=O)[C@H](CCCCN)NC(=O)[C@H](CCCCN)NC(=O)Cc1ccccc1)C(N)=O` [inhibitor 27] (HELM PEPTIDE1{[O=C(Cc1ccccc1)[*:2]].K.K.R.[am]}$$$$V2.0), the Ki on WNV NS2B-NS3 protease [3] came to 2.47 µM. In addition, the inhibition at 100 µM in test [4] is 20.8%.

On WNV NS2B-NS3 protease [3], `N=C(N)NCCC[C@H](NC(=O)[C@H](CCCCN)NC(=O)[C@H](CCCCN)NC(=O)Cc1ccc(Cl)c(Cl)c1)C(N)=O` [inhibitor 29] came in with a Ki of 1.13 µM. Also, the inhibition at 100 µM in test [4] stood at 25.1%.

As to `N=C(N)NCCC[C@H](NC(=O)[C@H](CCCCN)NC(=O)[C@H](CCCCN)NC(=O)Cc1ccc(Cl)c(Cl)c1)C(=O)NCC(N)=O` [inhibitor 30] (HELM PEPTIDE1{[O=C(Cc1ccc(Cl)c(Cl)c1)[*:2]].K.K.R.G.[am]}$$$$V2.0), the Ki on WNV NS2B-NS3 protease [3] worked out at 1.8 µM. Further, the inhibition at 100 µM in test [4] was 45%.

In turn, `N=C(N)NCCC[C@H](NC(=O)[C@H](CCCCN)NC(=O)[C@H](CCCCN)NC(=O)Cc1cccc(N)c1)C(N)=O` [inhibitor 31] had a Ki on WNV NS2B-NS3 protease [3] of 1.2 µM. Moreover, the inhibition at 100 µM in test [4] amounted to 27.5%.

Take `N=C(N)NCCC[C@H](NC(=O)[C@H](CCCCN)NC(=O)[C@H](CCCCN)NC(=O)Cc1ccc2c(c1)OCO2)C(N)=O` [inhibitor 32]: the Ki on WNV NS2B-NS3 protease [3] stood at 0.68 µM. The inhibition at 100 µM in test [4] came to 19.9%.

In turn, `N=C(N)NCCC[C@H](NC(=O)[C@H](CCCCN)NC(=O)[C@H](CCCCN)NC(=O)Cc1ccc(O)cc1)C(N)=O` [inhibitor 33] showed a Ki on WNV NS2B-NS3 protease [3] of 0.54 µM. For the same compound, the inhibition at 100 µM in test [4] is 27.5%.

At WNV NS2B-NS3 protease [3], `N=C(N)NCCC[C@H](NC(=O)[C@H](CCCCN)NC(=O)[C@H](CCCCN)NC(=O)Cc1ccc(-c2ccccc2)cc1)C(N)=O` [inhibitor 34] had a Ki of 0.53 µM. In addition, in test [4], the inhibition at 100 µM came out at 27.1%.

Regarding `N=C(N)NCCC[C@H](NC(=O)[C@H](CCCCN)NC(=O)[C@H](CCCCN)NC(=O)Cc1ccc(CN)cc1)C(N)=O` [inhibitor 35], the Ki on WNV NS2B-NS3 protease [3] is 0.38 µM. For the same compound, the inhibition at 100 µM in test [4] came to 31.7%.

`N=C(N)NCCC[C@H](NC(=O)[C@H](CCCCN)NC(=O)[C@H](CCCCN)NC(=O)Cc1cccc(CN)c1)C(N)=O` [inhibitor 36]: the Ki at WNV NS2B-NS3 protease [3] was found to be 0.36 µM. The inhibition at 100 µM in test [4] came to 12.4%.

For the compound `N=C(N)NCCC[C@H](NC(=O)[C@H](CCCCN)NC(=O)[C@H](CCCCN)NC(=O)Cc1cccc(CNC(=N)N)c1)C(N)=O` [inhibitor 37], on WNV NS2B-NS3 protease [3], the Ki is 0.18 µM. Moreover, the inhibition at 100 µM in test [4] was determined as 32.3%.

On WNV NS2B-NS3 protease [3], `N=C(N)NCCC[C@H](NC(=O)[C@H](CCCCN)NC(=O)[C@H](CCCCN)NC(=O)Cc1ccc(CNC(=N)N)cc1)C(N)=O` [inhibitor 38, 4-(guanidinomethyl)-phenylacetyl-Lys-Lys-Arg-NH2] returned a Ki of 0.11 µM. Moreover, in test [4], the inhibition at 100 µM amounted to 65%.

For `N=C(N)NCCC[C@H](NC(=O)[C@H](CCCCN)NC(=O)[C@H](CCCCN)NC(=O)CC1CCCCC1)C(N)=O` [inhibitor 41], on WNV NS2B-NS3 protease [3], the Ki was 4.8 µM. Besides, the inhibition at 100 µM in test [4] turned out to be 36.7%.

Take `N=C(N)NCCC[C@H](NC(=O)[C@H](CCCCN)NC(=O)[C@H](CCCCN)NC(=O)CC12CC3CC(CC(C3)C1)C2)C(N)=O` [inhibitor 43]: the Ki at WNV NS2B-NS3 protease [3] amounted to 13.8 µM. For the same compound, the inhibition at 100 µM in test [4] amounted to 24.2%.

With `N=C(N)NCCC[C@H](NC(=O)[C@H](CCCCN)NC(=O)[C@H](CCCCN)NC(=O)[C@@H](N)C12CC3CC(CC(C3)C1)C2)C(N)=O` [inhibitor 44] (HELM PEPTIDE1{[N[C@H](C(=O)[*:2])C12CC3CC(CC(C3)C1)C2].K.K.R.[am]}$$$$V2.0), the Ki on WNV NS2B-NS3 protease [3] stood at 70 µM. In addition, the inhibition at 100 µM in test [4] is 14.6%.
